Source: PubChem BioAssay (NCI)
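All cell lines were grown in 96-well plates and treated with compound for 48 hours. At the GI50, growth is halved. At the TGI there is no net growth.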

Assays:
Test in all cases: NCI-60 cell line screen, 48 h
OVCAR-5 ovarian = system: OVCAR-5 ovarian
TK-10 renal = system: TK-10 renal
NCI-H522 lung = system: NCI-H522 lung
NCI-H23 lung = system: NCI-H23 lung
SF-295 CNS = system: SF-295 CNS
SK-MEL-28 melanoma = system: SK-MEL-28 melanoma
OVCAR-8 ovarian = system: OVCAR-8 ovarian
A498 renal = system: A498 renal
SW-620 colon = system: SW-620 colon
MOLT-4 leukemia = system: MOLT-4 leukemia

Row | SMILES | GI50 (OVCAR-5 ovarian) [µM] | TGI (OVCAR-5 ovarian) [µM] | GI50 (TK-10 renal) [µM] | TGI (TK-10 renal) [µM] | GI50 (NCI-H522 lung) [µM] | TGI (NCI-H522 lung) [µM] | GI50 (NCI-H23 lung) [µM] | TGI (NCI-H23 lung) [µM] | GI50 (SF-295 CNS) [µM] | TGI (SF-295 CNS) [µM] | GI50 (SK-MEL-28 melanoma) [µM] | TGI (SK-MEL-28 melanoma) [µM] | GI50 (OVCAR-8 ovarian) [µM] | TGI (OVCAR-8 ovarian) [µM] | GI50 (A498 renal) [µM] | TGI (A498 renal) [µM] | GI50 (SW-620 colon) [µM] | TGI (SW-620 colon) [µM] | TGI (MOLT-4 leukemia) [µM] | GI50 (MOLT-4 leukemia) [µM]
1 | CCOC(=O)/C=C/C1=C(c2cccs2)c2ccccc2CC1 | 35.9 | > 100 | 17.9 | 64.3 | 24.3 | 63.6 | 28.8 | 89.4 | 38.5 | > 100 | 26.3 | 75 | 30.5 | > 100 | 36.9 | > 100 | 31.1 | > 100 | – | –
2 | OC1(c2ccccc2)OC(C#Cc2ccccc2)(c2ccccc2)c2ccccc21 (centres undefined) | – | 16.8 | – | 26.2 | – | 20.3 | – | 11.3 | – | 18 | – | – | – | 5.87 | – | 10.1 | – | 15.4 | 8.01 | –
3 | C/C(=N\N(c1ccccc1)c1ccccc1)c1c(O)cc(C)oc1=O | – | – | – | > 100 | – | > 100 | – | > 100 | – | > 100 | – | > 100 | – | > 100 | – | > 100 | – | > 100 | > 100 | –
4 | O=C1C(c2ccccc2)=[N+]([O-])c2ccccc21 | – | 43.1 | – | 37.4 | – | – | – | 36.6 | – | 32.6 | – | 33.2 | – | 32.6 | – | 34 | – | 22.3 | 47.2 | –
5 | CN1CC[C@]2(C)c3ccc(O)cc3CC3CCCC1C32C (some centres undefined) | – | > 100 | – | > 100 | – | > 100 | – | > 100 | – | > 100 | – | > 100 | – | > 100 | – | > 100 | – | – | > 100 | –
6 | COc1ccc(-c2ccc(-c3ccc(C(=N)N)cn3)o2)cc1 | 10.9 | 23.7 | 10.7 | 22.7 | 6.8 | 20.7 | 11.6 | 25.5 | – | – | 8.23 | 20.9 | 11.3 | 31.2 | 12.8 | 26.3 | 4.05 | 16 | 15.5 | 4.4
7 | Cc1nc2sccn2c1-c1csc(Nc2cccc(Cl)c2C)n1 | 24 | > 100 | – | – | 3.94 | 26.5 | – | – | 1.72 | 10.6 | 5.67 | 44.1 | 5.84 | 47.1 | 1.45 | 17.5 | 3.91 | 24.3 | 26.8 | 4.22
8 | COC(=O)c1ccccc1NC(=O)C(=O)NNC(=O)c1ccncc1 | – | – | – | > 100 | – | > 100 | – | > 100 | – | > 100 | – | > 100 | – | > 100 | – | – | – | > 100 | > 100 | –
9 | COC1C2C=CC(C2)[C@H]1[N+](=O)[O-] (some centres undefined) | – | > 100 | – | > 100 | – | > 100 | – | > 100 | – | > 100 | – | – | – | > 100 | – | > 100 | – | > 100 | > 100 | –
10 | Cc1ccc(-c2cc(-c3ccco3)c(C#N)c(=O)n2C2OC(OC(=O)c3ccccc3)C(OC(=O)c3ccccc3)C2OC(=O)c2ccccc2)cc1 (centres undefined) | – | > 100 | – | > 100 | – | > 100 | – | – | – | > 100 | – | > 100 | – | > 100 | – | > 100 | – | > 100 | > 100 | –
